Source: US3965109A, “Certain aryl amino pyridines” (priority 1971, dated 1976)

What was measured:
Uncinula necator (vine) = experiment: Fungicidal test against foliar disease D (foliage spray plus soil drench); format: in vivo; conditions: 10 days
Xanthomonas malvacearum = experiment: Antibacterial agar test (B3); format: cell-based; conditions: 50 ppm; 5 days
Method: (§1) This Example illustrates the activity of compounds used as the active ingredients of compositions according to the invention against a variety of plant bacterial diseases and fungal post-harvest saprophytic diseases. In a test for such activity, 5 milligrams of the compound to be tested was dissolved or suspended in 10 ml. of acetone and enough of this solution or suspension was added to 18 ml. of nutrient agar (for the bacterial diseases) or 16 ml. of 2% malt agar (for the fungal diseases) to give a final concentration of 50 parts per million of the compound under test. A streptomycin preparation (2 ml. containing 100 units per ml.) was added to the malt agar to prevent bacterial contamination of the fungal tests.
(§2) The agar preparations were dried overnight in Petri dishes and inoculated the following morning with the bacterial or fungal diseases using a multipoint inoculator. The antibacterial activity was assessed after 5 days and the antifungal activity after 6 days. The results of the tests are set out in Table 16 (anti bacterial activity) and Table 17 (antifungal activity). The results are graded as in Example 1 above.

[1] = system: Puccinia recondita (wheat); experiment: Fungicidal test against foliar disease A (foliage spray plus soil drench); format: in vivo; conditions: 10 days
[2] = system: Corynebacterium michiganense; experiment: Antibacterial agar test (B2); format: cell-based; conditions: 50 ppm; 5 days
Method: as §1, §2

[3] = system: Plasmopara viticola (vine); experiment: Fungicidal test against foliar disease C (foliage spray plus soil drench); format: in vivo; conditions: 10 days
Pseudomonas syringae = experiment: Antibacterial agar test (B6); format: cell-based; conditions: 50 ppm; 5 days
[4] = system: Phytophthora infestans (tomato); format: in vivo; conditions: 3 days
[5] = system: Piricularia oryzae (rice); format: in vivo; conditions: 7 days; for Amount of disease grading, disease E (Table 4): 100 ppm spray and drench
[6] = system: Agrobacterium tumifaciens; experiment: Antibacterial agar test (B1); format: cell-based; conditions: 50 ppm; 5 days
Xanthomonas oryzae = format: cell-based; conditions: 50 ppm; 5 days
Erwinia carotovora = experiment: Antibacterial agar test (B4); format: cell-based; conditions: 50 ppm; 5 days
Streptomyces scabies = experiment: Antibacterial agar test (B7); format: cell-based; conditions: 50 ppm; 5 days
[7] = system: Tetranychus telarius (red spider mites, eggs); experiment: Pest toxicity test; format: in vivo; conditions: 0.1% by weight; French bean; 3 days
Aphis fabae = experiment: Pest toxicity test; format: in vivo; conditions: 0.1% by weight; broad bean; 2 days
[8] = system: Phaedon cochleariae (mustard beetles); experiment: Pest toxicity test; format: in vivo; conditions: in vivo
[9] = system: Aedes aegypti (mosquito larvae); experiment: Pest toxicity test; format: in vivo; conditions: 0.01% by weight; water; 1 day
[10] = system: Pieris brassicae (cabbage white caterpillars); experiment: Pest toxicity test; format: in vivo; conditions: 0.1% by weight, 2 days
[11] = system: Aedes aegypti (mosquito adults); experiment: Pest toxicity test; format: in vivo; conditions: 0.01% by weight; plywood; 1 day
[12] = system: Meloidogyne incognita (nematodes); experiment: Pest toxicity test; format: in vivo; conditions: 0.01% by weight; water; 1 day
Megoura viceae = experiment: Pest toxicity test; format: in vivo; conditions: 0.1% by weight; broad bean; 2 days
[13] = system: Musca domestica (houseflies); experiment: Pest toxicity test, contact test; format: in vivo; conditions: 0.1% by weight; milk/sugar; 2 days; flies sprayed directly
[14] = system: Tetranychus telarius (red spider mites, adults); experiment: Pest toxicity test; format: in vivo; conditions: 0.1% by weight; French bean; 3 days
[15] = system: Plutella maculipennis (diamond back moth larvae); experiment: Pest toxicity test; format: in vivo; conditions: in vivo
[16] = system: Agriolimax reticulatus (slugs); experiment: Molluscicidal activity test; format: in vivo, Agriolimax reticulatus (Mull); conditions: pellet with 4% by weight; 6 days; 10°C
Method: A weighed sample of the compound under test was dissolved in 0.5 c.c. of an ethanol and acetone mixture 50:50 v/v). The solution was diluted with 0.5 cc water and poured onto a calf feeding pellet in a glass Petri dish. The pellet was then air dried for 24 hours. The weight of compound used was chosen so that the dried pellet contained 4% by weight of the active ingredient. Two replicates each consisting of a plastic Petri dish containing a pellet, 2 slugs, and a moistened filter paper to maintain a high relative humidity were used in each test. The dishes were left in a cold room (10°C.) After 6 days the kill was assessed.
The slugs used were Agriolimax reticulatus (Mull), and they had been starved for 24 hours before the commencement of the tests.

Wheat = experiment: Herbicidal test, pre- and post-emergence; format: in vivo; conditions: 10 kg/ha; scale 0 to 3 (complete kill)
Maize = experiment: Herbicidal test, pre- and post-emergence; format: in vivo; conditions: 10 kg/ha; scale 0 to 3 (complete kill)
Tomato = experiment: Herbicidal test, pre- and post-emergence; format: in vivo; conditions: 10 kg/ha; scale 0 to 3 (complete kill)
Lettuce = experiment: Herbicidal test, pre- and post-emergence; format: in vivo; conditions: 10 kg/ha; scale 0 to 3 (complete kill)
[17] = 50 ppm spray + 200 ppm soil drench

Structure (SMILES)	Antibacterial activity grading B3 (Xanthomonas malvacearum)	Antibacterial activity grading B2 [2]	Antibacterial activity grading B6 (Pseudomonas syringae)	Antibacterial activity grading B1 [6]	Antibacterial activity grading B5 (Xanthomonas oryzae)	Antibacterial activity grading B4 (Erwinia carotovora)	Antibacterial activity grading B7 (Streptomyces scabies)	Mortality grading (kill) [7]	Mortality grading (kill) (Aphis fabae)	Mortality grading (kill) [8]	Mortality grading (kill) [9]	Mortality grading (kill) [10]	Mortality grading (kill) [11]	Mortality grading (kill) (Megoura viceae)	Mortality grading (kill), contact test [13]	Mortality grading (kill) [14]	Mortality grading (kill) [15]	Amount of disease grading, disease D (Table 4) (Uncinula necator (vine); 100 ppm spray and drench)	Amount of disease grading, disease A (Table 4) ([1]; 100 ppm spray and drench)	Amount of disease grading, disease C (Table 4) ([3]; 100 ppm spray and drench)	other results
O=[N+]([O-])c1cc([N+](=O)[O-])c(Nc2c(Cl)c(F)nc(F)c2Cl)cc1F [Compound 6, 3,5-Dichloro-2,6-difluoro-4(2,4-dinitro-5-fluoroanilino)pyridine]	3 (0 to 5)	3 (0 to 5)	2 (6 to 25)	3 (0 to 5)	2 (6 to 25)	1 (26 to 60)	1 (26 to 60)														Amount of disease grading, disease D (Uncinula necator (vine); [17]): 2 (6 to 25); Amount of disease grading, disease A [1, 17]: 0 (61 to 100); Amount of disease grading, disease C [3, 17]: 3 (0 to 5); Amount of disease grading, disease B [4, 17]: 3 (0 to 5); Amount of disease grading, disease E [5, 17]: 3 (0 to 5)
O=[N+]([O-])c1ccccc1Nc1c(Cl)c(F)nc(F)c1Cl [Compound 11, 3,5-Dichloro-2,6-difluoro-4(2-nitroanilino)pyridine]								0 (O represents less than 30% kill)	0 (O represents less than 30% kill)	0 (key: O represents less than 30% kill; 1 represents 30 - 49% kill; 2 represents 60 - 90% kill; 3 represents over 90% kill; C indicates a chemosterilant effect.; A indicates an antifeeding effect.)	0 (O represents less than 30% kill)	0 (O represents less than 30% kill)	0 (O represents less than 30% kill)	0 (O represents less than 30% kill)	0 (O represents less than 30% kill)	0 (O represents less than 30% kill)	0 (key: O represents less than 30% kill; 1 represents 30 - 49% kill; 2 represents 60 - 90% kill; 3 represents over 90% kill; C indicates a chemosterilant effect.; A indicates an antifeeding effect.)				Mortality grading (kill) [12]: 2 (2 represents 60 - 90% kill)
O=[N+]([O-])c1ccc(Nc2c(F)c(F)nc(F)c2F)c([N+](=O)[O-])c1 [Compound 15, 4(2,4-Dinitroanilino)-tetrafluoropyridine]	3 (0 to 5)	3 (0 to 5)	3 (0 to 5)	3 (0 to 5)	3 (0 to 5)	3 (0 to 5)	3 (0 to 5)	2 (2 represents 60 - 90% kill)	0 (O represents less than 30% kill)	2 (key: O represents less than 30% kill; 1 represents 30 - 49% kill; 2 represents 60 - 90% kill; 3 represents over 90% kill; C indicates a chemosterilant effect.; A indicates an antifeeding effect.)	0 (O represents less than 30% kill)	3 (3 represents over 90% kill)	0 (O represents less than 30% kill)	0 (O represents less than 30% kill)	2 (2 represents 60 - 90% kill)	3 (3 represents over 90% kill)	0 (key: O represents less than 30% kill; 1 represents 30 - 49% kill; 2 represents 60 - 90% kill; 3 represents over 90% kill; C indicates a chemosterilant effect.; A indicates an antifeeding effect.)				Amount of disease grading, disease D (Uncinula necator (vine); 100 ppm spray and drench): 3 (0 to 5); Amount of disease grading, disease A ([1]; 100 ppm spray and drench): 2 (6 to 25); Amount of disease grading, disease C ([3]; 100 ppm spray and drench): 3 (0 to 5); % Kill of slugs [16]: 50%
O=[N+]([O-])c1cc([N+](=O)[O-])c(Nc2c(Cl)c(Cl)nc(Cl)c2Cl)cc1F [Compound 35, 4(5-Fluoro-2,4-dinitroanilino)tetrachloropyridine]	0 (61 to 100)	0 (61 to 100)	2 (6 to 25)	0 (61 to 100)	1 (26 to 60)	0 (61 to 100)	2 (6 to 25)											0 (61 to 100)	2 (6 to 25)	3 (0 to 5)	Amount of disease grading, disease B (Table 4) ([4]; 100 ppm spray and drench): 3 (0 to 5); Amount of disease grading, disease E (Table 4) [5]: 2 (6 to 25)
O=[N+]([O-])c1ccc(Nc2c(Cl)c(F)nc(Cl)c2Cl)c(C(F)(F)F)c1 [Compound 44, 2-Fluoro-(4-nitro-2-trifluoromethylanilino)3,5,6-trichlorpyridine]	3 (0 to 5)	3 (0 to 5)	3 (0 to 5)	3 (0 to 5)	3 (0 to 5)	3 (0 to 5)	3 (0 to 5)	3 (3 represents over 90% kill)	0 (O represents less than 30% kill)	0 (key: O represents less than 30% kill; 1 represents 30 - 49% kill; 2 represents 60 - 90% kill; 3 represents over 90% kill; C indicates a chemosterilant effect.; A indicates an antifeeding effect.)	3 (3 represents over 90% kill)	3 (3 represents over 90% kill)	0 (O represents less than 30% kill)	0 (O represents less than 30% kill)	3 (3 represents over 90% kill)	3 (3 represents over 90% kill)	0 (key: O represents less than 30% kill; 1 represents 30 - 49% kill; 2 represents 60 - 90% kill; 3 represents over 90% kill; C indicates a chemosterilant effect.; A indicates an antifeeding effect.)	3 (0 to 5)	2 (6 to 25)	3 (0 to 5)	Damage to plants, post-emergence (Wheat): 0; Damage to plants, pre-emergence (Wheat): 3; Damage to plants, post-emergence (Maize): 1; Damage to plants, pre-emergence (Maize): 0; Amount of disease grading, disease E (Table 4) [5]: 0 (61 to 100); Damage to plants, post-emergence (Tomato): 3; Damage to plants, pre-emergence (Tomato): 3; Damage to plants, post-emergence (Lettuce): 3; Damage to plants, pre-emergence (Lettuce): 2
